Experimental data from patent publication US11220508B2, “TYK2 inhibitors and uses thereof” (Nimbus Lakshmi, Inc., priority 2016, dated 2022).

Experiments:
TYK2 JH1 kinase function = TYK2 JH1 kinase function (Homo sapiens (Human), UniProt P29597); experiment: Tyk2 radioactive kinase assay; type: biochemical; details: active kinase assay, ATP at 10 μM
Method: (§1) Peptide substrate, [KKSRGDYMTMQIG], (20 μM) is prepared in reaction buffer (20 mM Hepes pH 7.5, 10 mM MgCl2, 1 mM EGTA, 0.02% Brij35, 0.02 mg/mL BSA, 0.1 mM […], 2 mM DTT, 1% DMSO. TYK2 (Invitrogen) kinase is added, followed by compounds in DMSO. 33PATP is added to initiate the reaction in ATP at 10 μM. Kinase reaction is incubated for 120 min at room temp and reactions are spotted onto P81 ion exchange paper (Whatman #3698-915), and then washed extensively in 0.75% phosphoric acid, prior to reading the radioactivity counts. For JAK2 (Invitrogen) kinase assay the peptide substrate poly[Glu:Tyr] (4:1), 0.2 mg/ml is used, in the reaction carried out the same as for TYK2.

JAK2 JH1 kinase function = JAK2 JH1 kinase function (Homo sapiens (Human), UniProt O60674); experiment: JAK2 radioactive kinase assay; type: biochemical; details: active kinase assay, ATP at 10 μM
Method: as §1

[1] = molecular target: human TYK2 (JH2domain-pseudokinase) (Homo sapiens (Human), UniProt P29597); experiment: TYK2 JH2 domain binding assay (KINOMEscan, DiscoveRx); details: Table 4, JH2 binding assay
Sequence of human TYK2 (JH2domain-pseudokinase) (P29597 556-888): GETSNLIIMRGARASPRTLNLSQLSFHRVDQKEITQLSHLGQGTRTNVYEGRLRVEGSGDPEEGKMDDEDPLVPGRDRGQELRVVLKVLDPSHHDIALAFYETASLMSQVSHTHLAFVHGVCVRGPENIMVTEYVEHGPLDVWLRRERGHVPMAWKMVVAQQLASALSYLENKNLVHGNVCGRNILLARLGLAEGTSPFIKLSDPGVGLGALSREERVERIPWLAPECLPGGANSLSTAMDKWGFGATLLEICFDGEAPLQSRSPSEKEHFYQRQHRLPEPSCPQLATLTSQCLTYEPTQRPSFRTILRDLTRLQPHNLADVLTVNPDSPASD

Sequence of TYK2 JH1 kinase function (P29597 whole entry): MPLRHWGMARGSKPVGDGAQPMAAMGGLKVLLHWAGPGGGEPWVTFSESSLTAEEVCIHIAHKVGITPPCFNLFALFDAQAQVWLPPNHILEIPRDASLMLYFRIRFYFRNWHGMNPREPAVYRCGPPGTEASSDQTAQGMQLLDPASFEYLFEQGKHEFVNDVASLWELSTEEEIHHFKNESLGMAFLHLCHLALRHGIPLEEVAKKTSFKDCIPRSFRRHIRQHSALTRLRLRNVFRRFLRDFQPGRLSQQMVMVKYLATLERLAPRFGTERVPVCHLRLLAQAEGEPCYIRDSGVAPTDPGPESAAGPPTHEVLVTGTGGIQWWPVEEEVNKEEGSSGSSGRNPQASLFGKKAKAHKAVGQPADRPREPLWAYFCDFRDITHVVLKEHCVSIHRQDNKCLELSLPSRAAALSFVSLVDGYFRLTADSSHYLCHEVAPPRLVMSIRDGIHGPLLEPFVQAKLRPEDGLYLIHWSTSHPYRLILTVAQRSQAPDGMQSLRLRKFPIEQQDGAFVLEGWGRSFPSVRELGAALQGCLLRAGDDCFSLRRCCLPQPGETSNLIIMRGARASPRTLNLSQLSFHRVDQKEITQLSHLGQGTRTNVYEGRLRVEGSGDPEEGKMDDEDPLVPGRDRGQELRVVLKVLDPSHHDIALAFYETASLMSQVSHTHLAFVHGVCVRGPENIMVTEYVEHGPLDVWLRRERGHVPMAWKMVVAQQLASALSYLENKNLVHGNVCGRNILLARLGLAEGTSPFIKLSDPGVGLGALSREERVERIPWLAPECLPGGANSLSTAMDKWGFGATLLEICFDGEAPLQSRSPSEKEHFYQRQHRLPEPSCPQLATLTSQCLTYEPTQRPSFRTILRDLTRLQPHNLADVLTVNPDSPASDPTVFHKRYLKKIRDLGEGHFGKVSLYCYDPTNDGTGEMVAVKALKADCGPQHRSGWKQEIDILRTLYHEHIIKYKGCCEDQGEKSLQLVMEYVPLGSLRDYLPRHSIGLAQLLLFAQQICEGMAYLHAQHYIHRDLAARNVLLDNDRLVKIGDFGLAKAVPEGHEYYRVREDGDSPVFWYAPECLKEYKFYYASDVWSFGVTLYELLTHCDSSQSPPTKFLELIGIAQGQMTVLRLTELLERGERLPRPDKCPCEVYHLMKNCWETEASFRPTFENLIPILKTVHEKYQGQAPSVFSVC
Sequence of JAK2 JH1 kinase function (O60674 whole entry): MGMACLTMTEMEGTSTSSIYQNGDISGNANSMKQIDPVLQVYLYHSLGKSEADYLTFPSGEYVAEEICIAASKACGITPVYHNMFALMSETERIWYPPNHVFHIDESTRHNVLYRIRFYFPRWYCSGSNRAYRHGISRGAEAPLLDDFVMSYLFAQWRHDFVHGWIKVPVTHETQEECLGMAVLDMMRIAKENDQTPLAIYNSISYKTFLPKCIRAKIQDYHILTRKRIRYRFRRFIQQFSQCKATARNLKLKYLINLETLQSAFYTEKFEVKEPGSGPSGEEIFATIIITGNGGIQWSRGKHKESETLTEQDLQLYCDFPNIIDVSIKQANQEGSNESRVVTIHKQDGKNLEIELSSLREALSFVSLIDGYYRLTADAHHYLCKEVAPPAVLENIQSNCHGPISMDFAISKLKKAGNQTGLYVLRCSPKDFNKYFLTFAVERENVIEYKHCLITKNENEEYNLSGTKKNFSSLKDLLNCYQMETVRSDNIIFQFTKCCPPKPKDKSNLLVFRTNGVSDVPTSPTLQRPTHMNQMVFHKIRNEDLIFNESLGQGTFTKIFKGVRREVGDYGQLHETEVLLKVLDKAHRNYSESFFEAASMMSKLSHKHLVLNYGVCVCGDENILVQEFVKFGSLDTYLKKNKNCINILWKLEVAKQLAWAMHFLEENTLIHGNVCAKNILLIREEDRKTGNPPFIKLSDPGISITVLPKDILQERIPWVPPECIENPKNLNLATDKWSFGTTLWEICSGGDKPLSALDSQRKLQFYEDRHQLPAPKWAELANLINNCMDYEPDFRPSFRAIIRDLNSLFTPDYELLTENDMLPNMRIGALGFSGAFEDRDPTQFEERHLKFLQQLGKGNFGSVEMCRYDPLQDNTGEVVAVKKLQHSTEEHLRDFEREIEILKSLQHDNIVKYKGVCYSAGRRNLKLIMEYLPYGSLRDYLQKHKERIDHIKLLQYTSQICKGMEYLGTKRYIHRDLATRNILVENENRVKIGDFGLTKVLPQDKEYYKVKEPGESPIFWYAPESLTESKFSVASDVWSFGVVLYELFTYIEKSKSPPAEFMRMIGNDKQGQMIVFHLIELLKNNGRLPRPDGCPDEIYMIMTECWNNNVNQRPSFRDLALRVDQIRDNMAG

Compound	inhibitory activity against TYK2 JH1 kinase function (TYK2 JH1 kinase function)	inhibitory activity against JAK2 JH1 kinase function (JAK2 JH1 kinase function)	Kd [1] [nM]
COCc1ccnc(Nc2cc(Nc3cccc(-c4nnn(C)n4)c3OC)c3c(=O)n(C)[nH]c3n2)c1 [Compound I-2, 4-((2-methoxy-3-(2-methyl-2H-tetrazol-5-yl)phenyl)amino)-6-((4-(methoxymethyl)pyridin-2-yl)amino)-2-methyl-1,2-dihydro-3H-pyrazolo[3,4-b]pyridin-3-one]	no detectable inhibitory activity		
COc1c(Nc2cc(NC(=O)C3CC3)nc3[nH]n(C)c(=O)c23)cccc1-c1nnn(C)n1 [Compound I-1, N-(4-((2-methoxy-3-(2-methyl-2H-tetrazol-5-yl)phenyl)amino)-2-methyl-3-oxo-2,3-dihydro-1H-pyrazolo[3,4-b]pyridin-6-yl)cyclopropanecarboxamide]	no detectable inhibitory activity		
COC(=O)c1nnc(-c2cnc(NC(=O)C3CC3)cc2Nc2cccc(-c3ncn(C)n3)c2OC)o1 [VIII-4, methyl 5-(6-(cyclopropanecarboxamido)-4-((2-methoxy-3-(1-methyl-1H-1,2,4-triazol-3-yl)phenyl)amino)pyridin-3-yl)-1,3,4-oxadiazole-2-carboxylate]	no detectable inhibitory activity	no detectable inhibitory activity	
COc1c(Nc2cc(NC(=O)C3CC3)ncc2-c2ncc(F)s2)cccc1-c1nnn(C)n1 [VIII-2, N-(5-(5-fluorothiazol-2-yl)-4-((2-methoxy-3-(2-methyl-2H-tetrazol-5-yl)phenyl)amino)pyridin-2-yl)cyclopropanecarboxamide]	no detectable inhibitory activity	no detectable inhibitory activity	
COc1c(Nc2cc(NC(=O)C3CC3)ncc2-c2ncc(Cl)s2)cccc1-c1nnn(C)n1 [VIII-1, N-(5-(5-chlorothiazol-2-yl)-4-((2-methoxy-3-(2-methyl-2H-tetrazol-5-yl)phenyl)amino)pyridin-2-yl)cyclopropanecarboxamide]	no detectable inhibitory activity	no detectable inhibitory activity	
COc1c(Cl)cccc1Nc1cc(Nc2cccc(N3CC(OC)C3)n2)nc2[nH]n(C)c(=O)c12 [Compound I-116, 4-((3-chloro-2-methoxyphenyl)amino)-6-((6-(3-methoxyazetidin-1-yl)pyridin-2-yl)amino)-2-methyl-1,2-dihydro-3H-pyrazolo[3,4-b]pyridin-3-one]			> 10
COc1c(Nc2cc(NC(=O)C3CC3)ncc2-c2nnc(C(F)(F)F)o2)cccc1-c1ncn(C)n1 [VIII-3, N-(4-((2-methoxy-3-(1-methyl-1H-1,2,4-triazol-3-yl)phenyl)amino)-5-(5-(trifluoromethyl)-1,3,4-oxadiazol-2-yl)pyridin-2-yl)cyclopropanecarboxamide]	no detectable inhibitory activity	no detectable inhibitory activity	
